Reference: patent publication US11155557B2, “Pyrazolopyrimidine compounds and methods of use thereof” (Genentech, Inc., priority 2016, dated 2021)
Like-named read-outs stand apart in the source and are kept apart here.

Assays:
[1] = target: isolated recombinant JAK1 kinase domain (Homo sapiens (Human), UniProt P23458); experiment: JAK1 enzyme assay (Caliper LabChip, Ki); type: biochemical
Protocol: The activity of the isolated recombinant JAK1 and JAK2 kinase domain was measured by monitoring phosphorylation of a peptide derived from JAK3 ([…] fluorescently labeled on the N-terminus with 5-carboxyfluorescein) using the Caliper LabChip R technology (Caliper Life Sciences, Hopkinton, Mass.).

[2] = target: isolated recombinant JAK2 kinase domain (Homo sapiens (Human), UniProt O60674); experiment: JAK2 enzyme assay (Caliper LabChip, Ki)
Protocol: JAK Enzyme Assays were Carried Out as Follows:
The activity of the isolated recombinant JAK1 and JAK2 kinase domain was measured by monitoring phosphorylation of a peptide derived from JAK3 ([sequence] fluorescently labeled on the N-terminus with 5-carboxyfluorescein) using the Caliper LabChip R technology (Caliper Life Sciences, Hopkinton, Mass.). […] After termination of the kinase reaction, the proportion of phosphorylated product was determined as a fraction of total peptide substrate using the Caliper LabChip R 3000 according to the manufacturer's specifications.

[3] = test system: JAK1-dependent STAT6 phosphorylation in BEAS-2B human bronchial epithelial cells; experiment: JAK1 pathway assay: IL-13 stimulated STAT6 phosphorylation in BEAS-2B cells; type: cell-based; details: BEAS-2B cells, IL-13 stimulation, read-out: IL-13 p-STAT6 BEAS-2B IC50
How it was run: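 BEAS-2B bronchial epithelial cells plated one day before, run in complete growth medium. Phospho-STAT6 in lysates measured by MesoScale Discovery; EC50 reported.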

Sequence of isolated recombinant JAK1 kinase domain (P23458 875-1153): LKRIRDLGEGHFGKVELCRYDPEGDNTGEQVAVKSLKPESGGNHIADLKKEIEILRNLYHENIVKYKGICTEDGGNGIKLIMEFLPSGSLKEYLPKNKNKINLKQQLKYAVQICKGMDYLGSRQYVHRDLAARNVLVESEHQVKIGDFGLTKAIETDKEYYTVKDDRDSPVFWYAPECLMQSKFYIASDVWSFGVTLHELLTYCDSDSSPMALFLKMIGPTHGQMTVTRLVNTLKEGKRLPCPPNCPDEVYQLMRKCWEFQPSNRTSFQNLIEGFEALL
Sequence of isolated recombinant JAK2 kinase domain (O60674 849-1124): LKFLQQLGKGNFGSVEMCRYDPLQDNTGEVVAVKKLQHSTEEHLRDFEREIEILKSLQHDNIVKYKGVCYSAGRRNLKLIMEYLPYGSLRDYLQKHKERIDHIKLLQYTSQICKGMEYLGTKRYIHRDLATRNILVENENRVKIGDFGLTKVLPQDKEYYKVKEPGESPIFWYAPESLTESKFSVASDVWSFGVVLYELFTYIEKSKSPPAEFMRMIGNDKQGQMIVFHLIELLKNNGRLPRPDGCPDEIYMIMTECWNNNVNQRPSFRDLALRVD

Structure (SMILES)	Ki [1]	Ki ([2]; read-out: JAK2 Ki)	IC50 ([3]; Homo sapiens, BEAS-2B)	IC50 [3]	Ki [2]
Cn1cc(NC(=O)c2cnn3cccnc23)c(-c2cc3c(cc2OC(F)F)NCCS3)n1 [Example 88, N-[3-[6-(difluoromethoxy)-3,4-dihydro-2H-1,4-benzothiazin-7-yl]-1-methyl-pyrazol-4-yl]pyrazolo[1,5-a]pyrimidine-3-carboxamide]	0.08 nM	0.1 nM	5 nM		
Cn1cc(NC(=O)c2cnn3cccnc23)c(-c2cc3c(cc2OC(F)F)NCCO3)n1 [Example 89, N-[3-[6-(difluoromethoxy)-3,4-dihydro-2H-1,4-benzoxazin-7-yl]-1-methyl-pyrazol-4-yl]pyrazolo[1,5-a]pyrimidine-3-carboxamide]	0.12 nM	0.1 nM	7 nM		
Cn1cc(NC(=O)c2cnn3cccnc23)c(-c2cc3c(cc2OC(F)F)NC(=O)CS3)n1 [Example 90, N-[3-[6-(difluoromethoxy)-3-oxo-4H-1,4-benzothiazin-7-yl]-1-methyl-pyrazol-4-yl]pyrazolo[1,5-a]pyrimidine-3-carboxamide]	0.07 nM	0.07 nM	5 nM		
Cn1cc(NC(=O)c2cnn3cccnc23)c(-c2cc3sc(C(=O)N4CCNCC4)cc3cc2OC(F)F)n1 [Example 91, N-[3-[5-(difluoromethoxy)-2-(piperazine-1-carbonyl)benzothiophen-6-yl]-1-methyl-pyrazol-4-yl]pyrazolo[1,5-a]pyrimidine-3-carboxamide]	4.03 nM	1.85 nM	308 nM		
COC(=O)Cn1cc(NC(=O)c2cnn3cccnc23)c(-c2cc3sc(C(N)=O)cc3cc2OC(F)F)n1 [Example 92, methyl 2-[3-[2-carbamoyl-5-(difluoromethoxy)benzothiophen-6-yl]-4-(pyrazolo[1,5-a]pyrimidine-3-carbonylamino)pyrazol-1-yl]acetate]	0.22 nM	0.2 nM	92 nM		
CC1CNc2cc(OC(F)F)c(-c3n[nH]cc3NC(=O)c3cnn4cccnc34)cc2S1 (stereo not drawn) [Example 94, N-[3-[6-(difluoromethoxy)-2-methyl-3,4-dihydro-2H-1,4-benzothiazin-7-yl]-1H-pyrazol-4-yl]pyrazolo[1,5-a]pyrimidine-3-carboxamide]	0.07 nM	0.05 nM		7 nM	
CN(C)C(=O)Cn1cc(NC(=O)c2cnn3cccnc23)c(-c2cc3c(cc2OC(F)F)NCCS3)n1 [Example 99, N-[3-[6-(difluoromethoxy)-3,4-dihydro-2H-1,4-benzothiazin-7-yl]-1-[2-(dimethylamino)-2-oxo-ethyl]pyrazol-4-yl]pyrazolo[1,5-a]pyrimidine-3-carboxamide]	0.12 nM	0.12 nM	24 nM		
CN(C)C(=O)Cn1cc(NC(=O)c2cnn3cccnc23)c(-c2cc3c(cc2OC(F)F)NCCO3)n1 [Example 100, N-[3-[6-(difluoromethoxy)-3,4-dihydro-2H-1,4-benzoxazin-7-yl]-1-[2-(dimethylamino)-2-oxo-ethyl]pyrazol-4-yl]pyrazolo[1,5-a]pyrimidine-3-carboxamide]	0.18 nM	0.34 nM	39 nM		
CN(C)C(=O)Cn1cc(NC(=O)c2cnn3cccnc23)c(-c2cc3c(cc2OC(F)F)CCO3)n1 [Example 109, N-[3-[5-(difluoromethoxy)-2,3-dihydrobenzofuran-6-yl]-1-[2-(dimethylamino)-2-oxo-ethyl]pyrazol-4-yl]pyrazolo[1,5-a]pyrimidine-3-carboxamide]	0.22 nM	0.42 nM	22 nM		
CC1(C)CNc2cc(OC(F)F)c(-c3n[nH]cc3NC(=O)c3cnn4cccnc34)cc2S1 [Example 110, N-[3-[6-(difluoromethoxy)-2,2-dimethyl-3,4-dihydro-1,4-benzothiazin-7-yl]-1H-pyrazol-4-yl]pyrazolo[1,5-a]pyrimidine-3-carboxamide]	0.08 nM	0.05 nM	10 nM		
CC1(C)COc2cc(OC(F)F)c(-c3n[nH]cc3NC(=O)c3cnn4cccnc34)cc2C1=O [Example 115, N-[3-[7-(difluoromethoxy)-3,3-dimethyl-4-oxo-chroman-6-yl]-1H-pyrazol-4-yl]pyrazolo[1,5-a]pyrimidine-3-carboxamide]	0.91 nM	0.36 nM	55 nM		
CNC(=O)Cn1cc(NC(=O)c2cnn3cccnc23)c(-c2cc3c(cc2OC(F)F)NCCO3)n1 [Example 116, N-[3-[6-(difluoromethoxy)-3,4-dihydro-2H-1,4-benzoxazin-7-yl]-1-[2-(methylamino)-2-oxo-ethyl]pyrazol-4-yl]pyrazolo[1,5-a]pyrimidine-3-carboxamide]	0.25 nM	0.4 nM	42 nM		
CNC(=O)Cn1cc(NC(=O)c2cnn3cccnc23)c(-c2cc3c(cc2OC(F)F)NCCS3)n1 [Example 117, N-[3-[6-(difluoromethoxy)-3,4-dihydro-2H-1,4-benzothiazin-7-yl]-1-[2-(methylamino)-2-oxo-ethyl]pyrazol-4-yl]pyrazolo[1,5-a]pyrimidine-3-carboxamide]	0.1 nM	0.1 nM	24 nM		
C[C@@H]1CNc2cc(OC(F)F)c(-c3n[nH]cc3NC(=O)c3cnn4cccnc34)cc2O1 [Example 118, N-[3-[(2R)-6-(difluoromethoxy)-2-methyl-3,4-dihydro-2H-1,4-benzoxazin-7-yl]-1H-pyrazol-4-yl]pyrazolo[1,5-a]pyrimidine-3-carboxamide]	0.68 nM	0.23 nM	37 nM		
CNC(=O)Cn1cc(NC(=O)c2cnn3cccnc23)c(-c2cc3c(cc2OC(F)F)SCCO3)n1 [Example 119, N-[3-[6-(difluoromethoxy)-2,3-dihydro-1,4-benzoxathiin-7-yl]-1-[2-(methylamino)-2-oxo-ethyl]pyrazol-4-yl]pyrazolo[1,5-a]pyrimidine-3-carboxamide]	1.01 nM	1.93 nM	40 nM		
CN(C)C(=O)Cn1cc(NC(=O)c2cnn3cccnc23)c(-c2cc3c(cc2OC(F)F)SCCO3)n1 [Example 120, N-[3-[6-(difluoromethoxy)-2,3-dihydro-1,4-benzoxathiin-7-yl]-1-[2-(dimethylamino)-2-oxo-ethyl]pyrazol-4-yl]pyrazolo[1,5-a]pyrimidine-3-carboxamide]	0.63 nM	2.54 nM	46 nM		
CC[C@@H](O)Cn1cc(NC(=O)c2cnn3cccnc23)c(-c2cc3c(cc2OC(F)F)NCCO3)n1 [Example 121, N-[3-[6-(difluoromethoxy)-3,4-dihydro-2H-1,4-benzoxazin-7-yl]-1-[(2R)-2-hydroxybutyl]pyrazol-4-yl]pyrazolo[1,5-a]pyrimidine-3-carboxamide]	0.41 nM		38 nM		0.45 nM
CC[C@H](O)Cn1cc(NC(=O)c2cnn3cccnc23)c(-c2cc3c(cc2OC(F)F)NCCO3)n1 [Example 122, N-[3-[6-(difluoromethoxy)-3,4-dihydro-2H-1,4-benzoxazin-7-yl]-1-[(2S)-2-hydroxybutyl]pyrazol-4-yl]pyrazolo[1,5-a]pyrimidine-3-carboxamide]	0.28 nM		32 nM		0.25 nM
O=C(Nc1cn(Cc2ncco2)nc1-c1cc2c(cc1OC(F)F)NCCO2)c1cnn2cccnc12 [Example 123, N-[3-[6-(difluoromethoxy)-3,4-dihydro-2H-1,4-benzoxazin-7-yl]-1-(oxazol-2-ylmethyl)pyrazol-4-yl]pyrazolo[1,5-a]pyrimidine-3-carboxamide]	0.36 nM	0.28 nM	24 nM		
O=C(Nc1cn(Cc2ncco2)nc1-c1cc2c(cc1OC(F)F)NCCS2)c1cnn2cccnc12 [Example 124, N-[3-[6-(difluoromethoxy)-3,4-dihydro-2H-1,4-benzothiazin-7-yl]-1-(oxazol-2-ylmethyl)pyrazol-4-yl]pyrazolo[1,5-a]pyrimidine-3-carboxamide]	0.25 nM	0.15 nM	20 nM		
Cn1nnnc1Cn1cc(NC(=O)c2cnn3cccnc23)c(-c2cc3c(cc2OC(F)F)NCCS3)n1 [Example 127, N-[3-[6-(difluoromethoxy)-3,4-dihydro-2H-1,4-benzothiazin-7-yl]-1-[(1-methyltetrazol-5-yl)methyl]pyrazol-4-yl]pyrazolo[1,5-a]pyrimidine-3-carboxamide]	0.12 nM	0.06 nM	14 nM		
Cn1nnc(Cn2cc(NC(=O)c3cnn4cccnc34)c(-c3cc4c(cc3OC(F)F)NCCS4)n2)n1 [Example 128, N-[3-[6-(difluoromethoxy)-3,4-dihydro-2H-1,4-benzothiazin-7-yl]-1-[(2-methyltetrazol-5-yl)methyl]pyrazol-4-yl]pyrazolo[1,5-a]pyrimidine-3-carboxamide]	0.14 nM	0.09 nM	7 nM		
CN(C)C(=O)Cn1cc(NC(=O)c2cnn3cccnc23)c(-c2cc3sncc3cc2OC(F)F)n1 [Example 129, N-[3-[5-(difluoromethoxy)-1,2-benzothiazol-6-yl]-1-[2-(dimethylamino)-2-oxo-ethyl]pyrazol-4-yl]pyrazolo[1,5-a]pyrimidine-3-carboxamide]	0.2 nM	0.47 nM	11 nM		
CCN(C)C(=O)Cn1cc(NC(=O)c2cnn3cccnc23)c(-c2cc3c(cc2OC(F)F)NCCO3)n1 [Example 130, N-[3-[6-(difluoromethoxy)-3,4-dihydro-2H-1,4-benzoxazin-7-yl]-1-[2-[ethyl(methyl)amino]-2-oxo-ethyl]pyrazol-4-yl]pyrazolo[1,5-a]pyrimidine-3-carboxamide]	0.31 nM	0.47 nM	59 nM		
